Measured values taken from article PMC10808794, “Snakebite drug discovery: high-throughput screening to identify novel snake venom metalloproteinase toxin inhibitors” (Frontiers in Pharmacology, 2024).
Values after ≈ are worked out from the molar mass of the structure shown. Values joined by “and” are separate entries in the source; they are usually repeats but may differ in a detail not shown here. Equal values may be shown once. Where a name gives a salt, the structure may show the parent alone. Read-outs that look alike come from different tables or passages of the source.

How the values were obtained:
[1] = design: method as in MedChemExpress; conditions: ref MedChemExpress; cited from earlier work
5-HT2C = tested on: 5-HT2C; design: method as in MedChemExpress; conditions: IP accumulation assays; ref MedChemExpress; read-out: IC50, 5-HT2C partial inverse agonist; cited from earlier work
5-HT2B = tested on: 5-HT2B; design: method as in MedChemExpress; conditions: IP accumulation assays; ref MedChemExpress; read-out: IC50, 5-HT2B inverse agonist; cited from earlier work
5-HT2A = tested on: 5-HT2A; design: method as in MedChemExpress; conditions: IP accumulation assays; ref MedChemExpress; read-out: IC50, 5-HT2A inverse agonist; cited from earlier work
[2] = tested on: SVMP activity of Echis ocellatus venom; assay: SVMP fluorogenic substrate assay, E. ocellatus venom; format: biochemical; conditions: for activity at the top dose tested: top 10 µM dose, negative control drugs; for EC50: E. ocellatus venom, 20-min endpoint, N/A = did not cross 50% inhibition at any dose, read-out: EC50, known inhibitors validation screen
Description: (§1) Daughter plates and assay-ready plates were stored at −20°C, with the latter used within a month of creation. For SVMP assay-ready plates, 0.91 µL of each drug from the respective daughter plate was plated, such that in the final assay volume of 91 μL, a final concentration of 10 µM was reached. […] In secondary screening, dose response curves were created, with a top final assay concentration of 10 µM and reaching sub-nanomolar concentrations (concentration range was dependent on specific plate layout), with each concentration tested in duplicate.
(§2) The SVMP activity of crude venom in the presence of inhibitors or vehicle control (DMSO) was measured using a quenched fluorogenic substrate (substrate for MMPs, ADAMs and Cathepsins, Cat no: ES010, Bio-Techne). […] Reactions consisted of 1 µg of venom in 15 µL PBS co-incubated with 0.91 µL of inhibitor at a concentration of 1 mM. […] The plates were read on a CLARIOstar microplate reader (BMG Labtech), at an excitation wavelength of 320–10 nm and emission wavelength of 420–10 nm with 10 flashes per well at 25°C, at a pre-defined end read time. The end-read times were selected independently for each venom, as the plateau point for the venom + vehicle control (maximum fluorescence) identified in an initial 1-h kinetic read.
(§3) The SVMP activity for the end-read data was calculated for each test condition as a percentage of the mean of the venom + vehicle wells (100% activity), with a baseline of the marimastat 10 µM controls representing 0% activity (Supplementary Equation S1).

[3] = design: method as in Williams et al., 2011b; conditions: ref Williams et al., 2011b; cited from earlier work
[4] = tested on: SVMP activity of five viper venoms; assay: SVMP fluorogenic substrate assay, summary across the panel of five viper venoms; format: biochemical; conditions: for EC50: five venoms
Description: as §1, §2, §3

[5] = tested on: SVMP activity of Bothrops jararaca venom; assay: SVMP fluorogenic substrate assay, B. jararaca venom; format: biochemical; conditions: 30-min endpoint, read-out: EC50, known inhibitors validation screen
Description: as §1, §2, §3

[6] = tested on: SVMP activity of Bitis arietans venom; assay: SVMP fluorogenic substrate assay, B. arietans venom; format: biochemical; conditions: 40-min endpoint, read-out: EC50, known inhibitors validation screen
Description: as §1, §2, §3

[7] = tested on: SVMP activity of Calloselasma rhodostoma venom; assay: SVMP fluorogenic substrate assay, C. rhodostoma venom; format: biochemical; conditions: 20-min endpoint, read-out: EC50, known inhibitors validation screen
Description: as §1, §2, §3

[8] = tested on: SVMP activity of Crotalus atrox venom; assay: SVMP fluorogenic substrate assay, C. atrox venom; conditions: read-out: EC50, known inhibitors validation screen, 30-min endpoint
Description: as §1, §2, §3

patients [9] = tested on: patients; design: method as in Bissett et al., 2005; conditions: ref Bissett et al., 2005, cited from earlier work
patients [10] = tested on: patients; design: method as in Conatus Pharmaceuticals Inc, 2012; conditions: 30 mg per day for up to 24 weeks; ref Conatus Pharmaceuticals Inc, 2012; cited from earlier work
5 alpha Reductase = target: 5 alpha Reductase; design: method as in MedChemExpress; conditions: benign prostatic hyperplasia, ref MedChemExpress, cited from earlier work
[11] = read-out: EC50 against each of the venoms, secondary screen
[12] = validation screen, read-out: EC50 range across all venoms, known inhibitors
[13] = validation screen, read-out: average EC50 across all venoms

Compound: COc1ccc(NC(=O)Nc2ccc(F)cc2F)cc1-c1c(Br)cnn1C [Nelotanserin]
- Solubility in DMSO [1]: ≥ 32 mg/mL and ≥ 73.19 mM
- IC50 (5-HT2C): 79 nM
- IC50 (5-HT2B): 791 nM
- IC50 (5-HT2A): 1.7 nM

Compound: CCc1c(C(=O)C(N)=O)c2c(OCC(=O)O)cccc2n1Cc1ccccc1 [varespladib, 2-[[3-(2-Amino-2-oxoacetyl)-2-ethyl-1-(phenylmethyl)-1H-indol-4-yl]oxy]-acetic acid]
- activity at the top dose tested [2]: no activity

Compound: CS(=O)(=O)O.N=C(N)c1ccc2cc(OC(=O)c3ccc(N=C(N)N)cc3)ccc2c1 [nafamostat, (6-Carbamimidoylnaphthalen-2-yl)4-(diaminomethylideneamino)benzoate methanesulfonic acid]
- activity at the top dose tested [2]: no activity

Compound: COCCOC(=O)N1CCN(S(=O)(=O)c2cc(F)c(Oc3ccc(Cl)cc3)c(F)c2)C(C(=O)NO)C1 (stereo not shown) [XL-784]
- aqueous solubility [3]: 20 µg/mL (≈ 36.4 µM)

Compound: S=C(N/N=C1\CCCc2cccnc21)N1CCN(c2ccccn2)CC1 [COTI-2]
- fold superiority of EC50 to dimercaprol ([4]; across all venoms, secondary screen): > 2 fold
- EC50 ([4]; read-out: EC50 range across all venoms, secondary screen): 185 to 640 nM

Compound: O=C(/C=C/c1cccc(S(=O)(=O)Nc2ccccc2)c1)NO [belinostat]
- EC50 [4, 11]: > 1000 nM

Compound: O=S(=O)(O)CC(S)CS (stereo not shown) [DMPS, 2,3-dimercapto-1-propane-sulfonic acid sodium salt monohydrate]
- EC50 [5]: 527 nM
- EC50 [6]: 1210 nM
- EC50 [7]: 5280 nM
- EC50 [4, 12]: 527 to 5280 nM
- EC50 [4, 13]: 2250 nM
- EC50 [8]: 3260 nM
- EC50 [2]: 959 nM

Compound: OCCN1C[C@H](O)[C@@H](O)[C@H](O)[C@H]1CO [miglitol]
- EC50 [4, 11]: > 1000 nM

Compound: CC1(C)SCCN(S(=O)(=O)c2ccc(Oc3ccncc3)cc2)[C@H]1C(=O)NO [prinomastat, prinomastat hydrochloride]
- toxicity observed in Phase III trials (patients [9]; 15 mg bi-daily dosing for 3–36 months): musculoskeletal toxicity was observed in a significant proportion of patients
- thromboembolic risk in Phase III trials (patients [9]; cancer patients receiving combination chemotherapy): increased risk of venous thromboembolic disease
- EC50 [5]: 9.53 nM
- EC50 [6]: 2.42 nM
- EC50 [7]: 36.7 nM
- EC50 [8]: 19.8 nM
- EC50 [2]: 4.35 nM

Compound: Cn1c(=O)cc(N2CCC[C@@H](N)C2)n(Cc2cc(F)ccc2C#N)c1=O [trelagliptin (succinate), trelagliptin]
- EC50 [4, 11]: > 1000 nM

Compound: NS(=O)(=O)c1cc2c(cc1Cl)N=CNS2(=O)=O [chlorothiazide]
- EC50 [4, 11]: > 1000 nM

Compound: C[C@]12C=CC(=O)N[C@@H]1CC[C@@H]1[C@@H]2CC[C@]2(C)[C@@H](C(=O)Nc3cc(C(F)(F)F)ccc3C(F)(F)F)CC[C@@H]12 [Dutasteride]
- Solubility in DMSO [1]: 63.06 mM (≈ 33.3 mg/mL)

Compound: CNC(=O)[C@@H](NC(=O)[C@H](CC(C)C)[C@H](O)C(=O)NO)C(C)(C)C [marimastat, (2S,3R)-N4-[(1S)-2,2-Dimethyl-1-[(methylamino)carbonyl]propyl]-N1,2-dihydroxy-3-(2-methylpropyl)butanediamide]
- EC50 [5]: 7.46 nM
- EC50 [6]: 2.36 nM
- EC50 [7]: 27.7 nM
- EC50 [8]: 12 nM
- EC50 [2]: 4.99 nM

Compound: OCC(S)CS (stereo not shown) [dimercaprol, 2,3-dimercapto-1-propanol]
- EC50 [5]: 558 nM
- EC50 [6]: 2290 nM
- EC50 [7]: 6860 nM
- EC50 [4, 12]: 558 to 6860 nM
- EC50 [4, 13]: 3140 nM
- EC50 [8]: 4890 nM
- EC50 [2]: 1120 nM and 1130 nM

Compound: CNC(=O)[C@H](Cc1ccccc1)NC(=O)[C@H](CC(C)C)[C@H](CSc1cccs1)C(=O)NO [batimastat, (2R,3S)-N4-Hydroxy-N1-[(1S)-2-(methylamino)-2-oxo-1-(phenylmethyl)ethyl]-2-(2-methylpropyl)-3-[(2-thienylthio)methyl]butanediamide]
- EC50 [5]: 5.57 nM
- EC50 [6]: 2.49 nM
- EC50 [7]: 42 nM
- EC50 [8]: 15.4 nM
- EC50 [2]: 6.23 nM

Compound: O=C(NO)C1(CS(=O)(=O)c2ccc(Oc3ccc(Cl)cc3)cc2)CCOCC1 [CTS-1027]
- adverse events in Phase II trials (patients [10]): a range of serious adverse events

Compound: CC(C)(C)NC(=O)[C@H]1CC[C@H]2[C@@H]3CC[C@H]4NC(=O)C=C[C@]4(C)[C@H]3CC[C@]12C [Finasteride]
- Ki (5 alpha Reductase; epithelium, read-out: Ki, 5alpha-reductase activity in epithelium): 10 nM
- Ki (5 alpha Reductase; stroma, read-out: Ki, 5alpha-reductase activity in stroma): 33 nM
- Solubility in DMSO [1]: 150 mg/mL and 402.64 mM
